Results published in publication PMC6636782 (PLoS Neglected Tropical Diseases, 2019).
Entries after “also recorded” stand apart in the source; their conditions may differ. Residues, ends and D or L forms follow the SMILES beside them.

Legend:
HLA-B*07:02 = biological target: T1, HLA-B*07:02 (Homo sapiens, UniProt P01889); experiment: cell-based
T1 construct: expressed in transfected cells; host or cells: RMA-S (TAP-deficient) cells transfected with HLA-B*07:02

[1] = system: CD4^+ T cell activation, HLA-DRB1*04:04 transgenic mice splenocytes; format: cell-based; conditions: acute response to rVACV-CHIKV, listed as CHIKV E2_133-145
HLA-C*07:02 = HLA-C*07:02 (Homo sapiens, UniProt P10321)

CC[C@H](C)[C@H](NC(=O)[C@@H](NC(=O)[C@@H]1CCCN1C(=O)[C@H](CCCNC(=N)N)NC(=O)[C@@H]1CCCN1C(=O)[C@@H](NC(=O)[C@H](Cc1c[nH]c2ccccc12)NC(=O)[C@@H]1CCCN1C(=O)[C@@H](N)CCCNC(=N)N)[C@@H](C)O)[C@@H](C)O)C(=O)O (H-RPWTPRPTI-OH) gave an EC50 (HLA-B*07:02) of 6 ± 6 µM.

With PPVIGREKFHSRP the “recognition of peptide-pulsed cells by spleen cells” value [1] was “specifically recognized; also recorded: presented and recognized as an epitope bound to DRB1*04:04”.

For YEHVTVIPNTVGVPYK, the “detection in HLA-bound peptide pool” value (HLA-C*07:02) was “most likely a HLA-C*07:02 ligand”.
